Legend:
Test in all cases: Postemergence herbicidal activity, greenhouse, visual injury after 20-22 d
Type in all cases: in vivo
[1] = test system: barnyardgrass (Echinochloa crus-galli, ECHCG); conditions: two trials
Procedure: (§1) Seeds of the desired test plant species were planted in Sun Gro MetroMix® 306 planting mixture, which typically has a pH of 6.0 to 6.8 and an organic matter content of about 30 percent, in plastic pots with a surface area of 103.2 square centimeters (cm^2). When required to ensure good germination and healthy plants, a fungicide treatment and/or other chemical or physical treatment was applied. The plants were grown for 7-36 days (d) in a greenhouse with an approximate 14-hour (h) photoperiod which was maintained at about 23° C. during the day and 22° C. during the night. Nutrients and water were added on a regular basis and supplemental lighting was provided with overhead metal halide 1000-Watt lamps as necessary. The plants were employed for testing when they reached the second or third true leaf stage.
(§2) An emulsifiable concentrate (EC) formulation containing Compound 1 at 100 gai/L was prepared by combining Compound 1 with 1-butyl-2-pyrrolidinone (Tamisolve NxG; 360.5 g/L), benzyl acetate (544.6 g/L) and Agnique MBL 520L surfactant (52.9 g/L). […] The concentrated stock solutions were diluted with an aqueous mixture of 1.5% v/v of Agri-dex crop oil concentrate to provide the appropriate application rates. Compound requirements are based upon a 12 milliliter (mL) application volume at a rate of 187 liters per hectare (L/ha). Spray solutions of the experimental compound mixtures were prepared by adding the stock solutions to the appropriate amount of dilution solution to form a 12 mL spray solution in two-way combinations. Formulated compounds were applied to the plant material with an overhead Mandel track sprayer equipped with 8002E nozzles calibrated to deliver 187 L/ha over an application area of 0.503 square meters (m^2) at a spray height of […] above average plant canopy. Control plants were sprayed in the same manner with the solvent blank. Application rates for component (a) are in g ai/ha, and application rates for component (b) are in g ai/ha.
(§3) The treated plants and control plants were placed in a greenhouse as described above and watered by sub-irrigation to prevent wash-off of the test compounds. After 20-22 d, the condition of the test plants as compared with that of the control plants was determined visually and scored on a scale of 0 to 100 percent where 0 corresponds to no injury and 100 corresponds to complete kill. […] The Colby method was used to determine the herbicidal effects expected from the mixtures.

[2] = test system: common chickweed (Stellaria media, STEME); conditions: two trials
Procedure: as §1, §2, §3

[3] = test system: common lambsquarters (Chenopodium album L., CHEAL)
Procedure: as §1, §2, §3

[4] = test system: giant foxtail (Setaria faberi, SETFA)
Procedure: as §1, §2, §3

[5] = test system: grain sorghum (Sorghum vulgare, SORVU); conditions: two trials
Procedure: as §1, §2, §3

[6] = test system: ivyleaf morningglory (Ipomoea hederacea, IPOHE); conditions: two trials
Procedure: as §1, §2, §3

[7] = test system: kochia (Kochia scoparia, KCHSC)
Procedure: as §1, §2, §3

[8] = test system: large crabgrass (Digitaria sanguinalis, DIGSA); conditions: two trials
Procedure: as §1, §2, §3

maize (Zea mays, ZEAMX) = conditions: two trials
Procedure: as §1, §2, §3

[9] = test system: pigweed (Amaranthus retroflexus, AMARE); conditions: two trials
Procedure: as §1, §2, §3

[10] = test system: poinsettia (Euphorbia heterophylla, EPHHL)
Procedure: as §1, §2, §3

[11] = test system: rice (Oryza sativa, ORYSA); conditions: two trials
Procedure: as §1, §2, §3

[12] = test system: soybean (Glycine max, GLXMA); conditions: two trials
Procedure: as §1, §2, §3

[13] = test system: spring rape (Brassica napus, BRSNN)
Procedure: as §1, §2, §3

[14] = test system: sunflower (Helianthus annuus, HELAN); conditions: two trials
Procedure: as §1, §2, §3

[15] = test system: thistle (Cirsium arvense CIRAR)
Procedure: as §1, §2, §3

[16] = test system: velvetleaf (Abutilon theophrasti, ABUTH)
Procedure: as §1, §2, §3

[17] = test system: wild buckwheat (Polygonum convolvulus, POLCO)
Procedure: as §1, §2, §3

[18] = test system: wild oat (Avena fatua, AVEFA); conditions: two trials
Procedure: as §1, §2, §3

[19] = test system: wild pansy (Viola tricolor, VIOTR)
Procedure: as §1, §2, §3

[20] = test system: winter rape (Brassica napus, BRSNW); conditions: two trials
Procedure: as §1, §2, §3

[21] = test system: winter wheat (Triticum aestivum, TRZAW); conditions: two trials
Procedure: as §1, §2, §3

[22] = Compound 1 5 g ai/ha alone, Tables 4-5
[23] = Compound 1 5 g ai/ha alone, two trials
[24] = Compound 1 10 g ai/ha alone, Tables 4-5
[25] = Compound 1 10 g ai/ha alone, two trials
[26] = HPPD inhibitor 35 g ai/ha alone
[27] = HPPD inhibitor 35 g ai/ha alone, two trials

Structure (SMILES): Nc1c(F)c(-c2ccc3cc[nH]c3c2F)nc(C(=O)O)c1Cl [Compound 1]
- Effect (% visual injury), Obs ([1]; Compound 1 5 g ai/ha alone): 20%
- Effect (% visual injury), Obs ([1]; Compound 1 10 g ai/ha alone): 60%
- Effect (% visual injury), Obs ([2]; Compound 1 5 g ai/ha alone): 70%
- Effect (% visual injury), Obs ([2]; Compound 1 10 g ai/ha alone): 70%
- Effect (% visual injury), Obs [3, 22]: 90%
- Effect (% visual injury), Obs [3, 23]: 90%
- Effect (% visual injury), Obs [3, 24]: 95%
- Effect (% visual injury), Obs [3, 25]: 98%
- Effect (% visual injury), Obs [4, 22]: 50%
- Effect (% visual injury), Obs [4, 23]: 30%
- Effect (% visual injury), Obs [4, 24]: 75%
- Effect (% visual injury), Obs [4, 25]: 63%
- Effect (% visual injury), Obs ([5]; Compound 1 5 g ai/ha alone): 0%
- Effect (% visual injury), Obs ([5]; Compound 1 10 g ai/ha alone): 50%
- Effect (% visual injury), Obs ([6]; Compound 1 5 g ai/ha alone): 10%
- Effect (% visual injury), Obs ([6]; Compound 1 10 g ai/ha alone): 10%
- Effect (% visual injury), Obs [7, 22]: 65%
- Effect (% visual injury), Obs [7, 23]: 63%
- Effect (% visual injury), Obs [7, 24]: 75%
- Effect (% visual injury), Obs [7, 25]: 68%
- Effect (% visual injury), Obs ([8]; Compound 1 5 g ai/ha alone): 0%
- Effect (% visual injury), Obs ([8]; Compound 1 10 g ai/ha alone): 10%
- Effect (% visual injury), Obs (maize (Zea mays, ZEAMX); Compound 1 5 g ai/ha alone): 0%
- Effect (% visual injury), Obs (maize (Zea mays, ZEAMX); Compound 1 10 g ai/ha alone): 0%
- Effect (% visual injury), Obs ([9]; Compound 1 5 g ai/ha alone): 75%
- Effect (% visual injury), Obs ([9]; Compound 1 10 g ai/ha alone): 97%
- Effect (% visual injury), Obs [10, 22]: 75%
- Effect (% visual injury), Obs [10, 23]: 86%
- Effect (% visual injury), Obs [10, 24]: 100%
- Effect (% visual injury), Obs [10, 25]: 99%
- Effect (% visual injury), Obs ([11]; Compound 1 5 g ai/ha alone): 0%
- Effect (% visual injury), Obs ([11]; Compound 1 10 g ai/ha alone): 10%
- Effect (% visual injury), Obs ([12]; Compound 1 5 g ai/ha alone): 95%
- Effect (% visual injury), Obs ([12]; Compound 1 10 g ai/ha alone): 100%
- Effect (% visual injury), Obs [13, 22]: 50%
- Effect (% visual injury), Obs [13, 23]: 50%
- Effect (% visual injury), Obs [13, 24]: 80%
- Effect (% visual injury), Obs [13, 25]: 80%
- Effect (% visual injury), Obs ([14]; Compound 1 5 g ai/ha alone): 90%
- Effect (% visual injury), Obs ([14]; Compound 1 10 g ai/ha alone): 90%
- Effect (% visual injury), Obs [15, 22]: 50%
- Effect (% visual injury), Obs [15, 23]: 50%
- Effect (% visual injury), Obs [15, 24]: 60%
- Effect (% visual injury), Obs [15, 25]: 60%
- Effect (% visual injury), Obs [16, 22]: 50%
- Effect (% visual injury), Obs [16, 23]: 50%
- Effect (% visual injury), Obs [16, 24]: 50%
- Effect (% visual injury), Obs [16, 25]: 55%
- Effect (% visual injury), Obs [17, 22]: 40%
- Effect (% visual injury), Obs [17, 23]: 53%
- Effect (% visual injury), Obs [17, 24]: 40%
- Effect (% visual injury), Obs [17, 25]: 58%
- Effect (% visual injury), Obs ([18]; Compound 1 5 g ai/ha alone): 0%
- Effect (% visual injury), Obs ([18]; Compound 1 10 g ai/ha alone): 0%
- Effect (% visual injury), Obs [19, 22]: 10%
- Effect (% visual injury), Obs [19, 23]: 8%
- Effect (% visual injury), Obs [19, 24]: 15%
- Effect (% visual injury), Obs [19, 25]: 13%
- Effect (% visual injury), Obs ([20]; Compound 1 5 g ai/ha alone): 40%
- Effect (% visual injury), Obs ([20]; Compound 1 10 g ai/ha alone): 45%
- Effect (% visual injury), Obs ([21]; Compound 1 5 g ai/ha alone): 0%
- Effect (% visual injury), Obs ([21]; Compound 1 10 g ai/ha alone): 0%

Structure (SMILES): CS(=O)(=O)c1cc(C(F)(F)F)ccc1C(=O)c1cnoc1C1CC1 [Isoxaflutole, (5-cyclopropyl-4-isoxazolyl)[2-(methylsulfonyl)-4-(trifluoromethyl)phenyl]methanone]
- Effect (% visual injury), Obs [1, 26]: 25%
- Effect (% visual injury), Obs [2, 26]: 10%
- Effect (% visual injury), Obs [3, 27]: 99%
- Effect (% visual injury), Obs [4, 27]: 97%
- Effect (% visual injury), Obs [5, 26]: 0%
- Effect (% visual injury), Obs [6, 26]: 70%
- Effect (% visual injury), Obs [7, 27]: 90%
- Effect (% visual injury), Obs [8, 26]: 50%
- Effect (% visual injury), Obs (maize (Zea mays, ZEAMX); [26]): 0%
- Effect (% visual injury), Obs [9, 26]: 95%
- Effect (% visual injury), Obs [10, 27]: 43%
- Effect (% visual injury), Obs [11, 26]: 30%
- Effect (% visual injury), Obs [12, 26]: 75%
- Effect (% visual injury), Obs [13, 27]: 85%
- Effect (% visual injury), Obs [14, 26]: 90%
- Effect (% visual injury), Obs [15, 27]: 75%
- Effect (% visual injury), Obs [16, 27]: 45%
- Effect (% visual injury), Obs [17, 27]: 10%
- Effect (% visual injury), Obs [18, 26]: 60%
- Effect (% visual injury), Obs [19, 27]: 45%
- Effect (% visual injury), Obs [20, 26]: 60%
- Effect (% visual injury), Obs [21, 26]: 15%

Source: patent US20210161135A1, “WEED CONTROL FROM APPLICATIONS OF PYRIDINE CARBOXYLIC ACID HERBICIDES AND 4-HYDROXYPHENYL-PYRUVATE DIOXYGENASE (HPPD) INHIBITORS” (Dow AgroSciences LLC, priority 2018, published 2021)
